# In ChEMBL document CHEMBL1201862, “PubChem BioAssay data set” (2004):
# Calls of active or inactive are those of the source.
# Experiments:
# [1] = biological target: T1, Ubiquitin-conjugating enzyme E2 N (Homo sapiens, UniProt P61088); assay type: functional;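 further: Dose-response confirmation in a TR-FRET assay detecting UBC13-driven polyubiquitin chain formation, inhibition measured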
# T1 sequence (P61088 whole entry): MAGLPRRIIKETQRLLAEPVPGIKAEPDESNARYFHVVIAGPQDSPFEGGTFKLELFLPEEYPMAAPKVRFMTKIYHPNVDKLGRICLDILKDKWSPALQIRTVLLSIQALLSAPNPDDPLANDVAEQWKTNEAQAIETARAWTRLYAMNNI
# [2] = toxicity toward HepG2 liver cells – cell-based, plate reader, cherry-pick, antagonist series, cytotoxicity control, dose response (AID 743416); assay type: functional
# [3] = blockers of bursicon-stimulated LGR2 cAMP reporter – cell-based, HEK293, CRE-luciferase reporter, cherry pick, set 2, dose response (AID 743343); assay type: functional;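 further: transfected cells were stimulated with diluted bursicon conditioned medium after compound addition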
# [4] = blockade of melanocortin 4 receptor signaling – cell-based, plate reader, cherry pick, counter-screen for LGR2 antagonist project, dose response (AID 743444); assay type: functional;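 further: transfected HEK 293 cells stimulated with alpha-MSH peptide; potency of inhibitors of the alpha-MSH evoked signal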
# [5] = biological target: Cytochrome P450 2D6 (Homo sapiens, UniProt P10635);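 further: CYP2D6 member of a cytochrome P450 panel assay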
# Sequence of Cytochrome P450 2D6 (P10635 whole entry): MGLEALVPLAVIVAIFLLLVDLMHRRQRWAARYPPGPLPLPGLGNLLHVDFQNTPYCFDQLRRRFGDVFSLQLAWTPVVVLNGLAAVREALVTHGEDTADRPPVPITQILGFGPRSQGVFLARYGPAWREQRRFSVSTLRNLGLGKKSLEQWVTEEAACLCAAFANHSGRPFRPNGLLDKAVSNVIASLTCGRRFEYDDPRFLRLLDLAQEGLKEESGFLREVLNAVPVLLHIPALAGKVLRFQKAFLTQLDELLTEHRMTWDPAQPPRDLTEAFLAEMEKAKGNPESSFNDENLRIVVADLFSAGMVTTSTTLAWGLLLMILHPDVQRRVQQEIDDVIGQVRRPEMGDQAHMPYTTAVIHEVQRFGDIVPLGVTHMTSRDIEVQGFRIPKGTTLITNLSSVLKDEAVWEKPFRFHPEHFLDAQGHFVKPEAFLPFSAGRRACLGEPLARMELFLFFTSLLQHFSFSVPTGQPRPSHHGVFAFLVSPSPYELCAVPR
# [6] = biological target: Cytochrome P450 2C9 (Homo sapiens, UniProt P11712)
# Sequence of Cytochrome P450 2C9 (P11712 whole entry): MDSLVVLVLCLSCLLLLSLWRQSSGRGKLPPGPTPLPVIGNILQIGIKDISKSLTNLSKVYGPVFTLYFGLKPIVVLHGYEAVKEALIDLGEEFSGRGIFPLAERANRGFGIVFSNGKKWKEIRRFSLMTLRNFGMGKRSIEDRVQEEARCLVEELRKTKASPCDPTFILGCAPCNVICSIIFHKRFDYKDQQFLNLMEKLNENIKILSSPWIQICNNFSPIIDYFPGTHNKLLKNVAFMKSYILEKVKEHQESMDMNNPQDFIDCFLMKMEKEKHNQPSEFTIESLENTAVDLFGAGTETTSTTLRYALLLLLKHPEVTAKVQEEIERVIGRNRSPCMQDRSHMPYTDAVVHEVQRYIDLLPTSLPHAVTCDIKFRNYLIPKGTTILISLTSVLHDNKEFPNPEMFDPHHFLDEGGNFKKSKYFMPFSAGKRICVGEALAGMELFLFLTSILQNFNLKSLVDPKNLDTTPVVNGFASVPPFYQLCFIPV
# [7] = NIH-3T3 fibroblast cytotoxicity, dose response, cytotoxicity control, cell-based, fluorescence, Alamar Blue, secondary assay (AID 2327); assay type: functional;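 further: NIH-3T3 mouse fibroblasts cultured with fluconazole at 8 µg/mL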
# [8] = fluconazole-exposed Candida albicans growth modulators – fluorescence, retest, confirmation (AID 2467); assay type: functional, cell-based
# [9] = Trypanosoma cruzi growth suppression in host cells – NIH3T3 host cells, beta-gal luminescence, confirmation (AID 2044); assay type: functional, cell-based;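 further: intracellular parasites grown in NIH/3T3 mouse fibroblasts as host cells; luminescent beta-galactosidase reporter signal from transgenic T. cruzi replicating inside host cells; inhibitors lower the luminescence signal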
# [10] = NIH3T3 cell viability loss – ATP luminescence, mouse fibroblasts, counter-screen, dose response (AID 2010); assay type: functional, cell-based;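 further: cells exposed to compound for about 90 hours before reading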
# [11] = biological target: T2, Caspase-3 (Homo sapiens, UniProt P42574); assay type: functional;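 further: Dose-response selectivity test against caspase-3 for candidate inhibitors of sentrin-specific proteases (SENPs)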
# T2 sequence (P42574 whole entry): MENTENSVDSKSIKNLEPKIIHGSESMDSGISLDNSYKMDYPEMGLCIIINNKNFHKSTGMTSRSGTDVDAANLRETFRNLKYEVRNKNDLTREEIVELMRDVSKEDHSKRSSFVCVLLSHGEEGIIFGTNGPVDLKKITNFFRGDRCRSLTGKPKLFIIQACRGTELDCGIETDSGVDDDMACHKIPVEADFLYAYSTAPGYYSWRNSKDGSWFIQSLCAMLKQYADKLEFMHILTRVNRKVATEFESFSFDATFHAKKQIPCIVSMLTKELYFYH
# [12] = biological target: T3, Sentrin-specific protease 7 (Homo sapiens, UniProt Q9BQF6); assay type: functional;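 further: Luminescence-based dose-response confirmation of ultra-high-throughput screening hits, measuring inhibition of SENP7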
# T3 sequence (Q9BQF6 whole entry): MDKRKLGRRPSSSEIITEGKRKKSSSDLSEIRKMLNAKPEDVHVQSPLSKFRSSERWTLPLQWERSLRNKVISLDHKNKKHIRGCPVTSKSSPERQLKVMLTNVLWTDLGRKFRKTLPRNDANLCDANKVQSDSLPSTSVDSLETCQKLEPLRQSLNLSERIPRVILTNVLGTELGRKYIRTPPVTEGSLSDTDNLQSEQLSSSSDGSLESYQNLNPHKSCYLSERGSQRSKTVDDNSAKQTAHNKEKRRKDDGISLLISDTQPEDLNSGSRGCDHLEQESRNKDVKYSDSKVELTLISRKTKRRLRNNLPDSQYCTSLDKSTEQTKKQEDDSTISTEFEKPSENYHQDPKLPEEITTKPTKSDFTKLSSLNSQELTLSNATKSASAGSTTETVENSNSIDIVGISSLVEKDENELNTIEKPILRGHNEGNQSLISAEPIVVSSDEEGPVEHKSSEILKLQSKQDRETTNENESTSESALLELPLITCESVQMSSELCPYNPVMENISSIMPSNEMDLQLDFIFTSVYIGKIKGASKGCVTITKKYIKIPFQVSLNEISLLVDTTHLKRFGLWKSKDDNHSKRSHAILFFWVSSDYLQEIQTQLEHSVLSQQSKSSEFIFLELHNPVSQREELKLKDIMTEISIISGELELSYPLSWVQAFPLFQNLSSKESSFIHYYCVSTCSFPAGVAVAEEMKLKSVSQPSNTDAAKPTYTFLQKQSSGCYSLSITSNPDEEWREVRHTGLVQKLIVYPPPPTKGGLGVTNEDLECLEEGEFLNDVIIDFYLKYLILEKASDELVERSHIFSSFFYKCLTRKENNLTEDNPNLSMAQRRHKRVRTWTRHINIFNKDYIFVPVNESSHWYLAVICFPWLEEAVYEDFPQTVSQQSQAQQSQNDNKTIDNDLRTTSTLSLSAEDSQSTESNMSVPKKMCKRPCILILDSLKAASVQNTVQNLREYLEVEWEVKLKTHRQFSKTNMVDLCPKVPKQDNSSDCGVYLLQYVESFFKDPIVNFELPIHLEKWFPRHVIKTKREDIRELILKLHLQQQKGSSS
# [13] = biological target: T4, Sentrin-specific protease 6 (Homo sapiens, UniProt Q9GZR1); assay type: functional;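 further: Luminescence-based dose-response confirmatory assay of SENP6 inhibition, following up an ultra-high-throughput screen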
# T4 sequence (Q9GZR1 whole entry): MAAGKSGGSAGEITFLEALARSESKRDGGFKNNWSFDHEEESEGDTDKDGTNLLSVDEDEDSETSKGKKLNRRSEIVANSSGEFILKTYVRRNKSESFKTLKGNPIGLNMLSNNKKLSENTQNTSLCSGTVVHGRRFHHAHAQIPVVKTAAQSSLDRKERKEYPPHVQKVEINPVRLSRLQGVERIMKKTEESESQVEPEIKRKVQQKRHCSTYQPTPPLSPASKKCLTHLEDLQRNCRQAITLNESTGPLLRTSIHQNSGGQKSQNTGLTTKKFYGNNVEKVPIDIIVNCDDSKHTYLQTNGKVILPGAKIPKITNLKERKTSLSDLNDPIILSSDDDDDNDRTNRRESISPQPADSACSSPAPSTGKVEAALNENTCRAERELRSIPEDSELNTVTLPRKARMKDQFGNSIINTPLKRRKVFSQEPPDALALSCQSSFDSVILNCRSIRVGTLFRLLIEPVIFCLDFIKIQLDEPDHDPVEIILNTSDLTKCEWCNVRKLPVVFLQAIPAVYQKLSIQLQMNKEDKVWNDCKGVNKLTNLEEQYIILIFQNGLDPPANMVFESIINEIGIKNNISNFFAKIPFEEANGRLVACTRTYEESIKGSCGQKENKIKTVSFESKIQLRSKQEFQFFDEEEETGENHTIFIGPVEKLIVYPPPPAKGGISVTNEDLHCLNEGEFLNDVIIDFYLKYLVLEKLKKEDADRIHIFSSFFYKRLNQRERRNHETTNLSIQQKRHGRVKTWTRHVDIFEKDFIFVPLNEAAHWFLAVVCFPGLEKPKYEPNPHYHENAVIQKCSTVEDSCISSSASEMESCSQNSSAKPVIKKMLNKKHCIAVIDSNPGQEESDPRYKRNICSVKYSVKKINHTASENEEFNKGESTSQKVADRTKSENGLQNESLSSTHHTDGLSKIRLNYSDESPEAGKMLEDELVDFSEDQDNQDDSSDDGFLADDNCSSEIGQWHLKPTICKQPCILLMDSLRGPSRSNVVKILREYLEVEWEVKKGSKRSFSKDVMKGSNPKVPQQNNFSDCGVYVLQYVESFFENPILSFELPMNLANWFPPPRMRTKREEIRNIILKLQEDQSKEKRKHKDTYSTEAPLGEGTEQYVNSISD
# [14] = biological target: T5, Sentrin-specific protease 8 (Homo sapiens, UniProt Q96LD8); assay type: functional;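 further: luminescence read-out of SENP8 inhibition, dose-response confirmation following an ultra-high-throughput screen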
# T5 sequence (Q96LD8 whole entry): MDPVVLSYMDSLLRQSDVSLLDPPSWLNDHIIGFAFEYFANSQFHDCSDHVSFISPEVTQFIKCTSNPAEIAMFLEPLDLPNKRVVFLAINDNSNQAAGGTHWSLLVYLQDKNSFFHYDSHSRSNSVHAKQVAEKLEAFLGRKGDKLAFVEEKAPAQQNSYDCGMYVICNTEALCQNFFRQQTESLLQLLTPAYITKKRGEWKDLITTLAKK
# [15] = cells; assay type: functional
# [16] = biological target: T6, Protein skinhead-1 (Caenorhabditis elegans, UniProt P34707); assay type: functional
# T6 sequence (P34707 whole entry): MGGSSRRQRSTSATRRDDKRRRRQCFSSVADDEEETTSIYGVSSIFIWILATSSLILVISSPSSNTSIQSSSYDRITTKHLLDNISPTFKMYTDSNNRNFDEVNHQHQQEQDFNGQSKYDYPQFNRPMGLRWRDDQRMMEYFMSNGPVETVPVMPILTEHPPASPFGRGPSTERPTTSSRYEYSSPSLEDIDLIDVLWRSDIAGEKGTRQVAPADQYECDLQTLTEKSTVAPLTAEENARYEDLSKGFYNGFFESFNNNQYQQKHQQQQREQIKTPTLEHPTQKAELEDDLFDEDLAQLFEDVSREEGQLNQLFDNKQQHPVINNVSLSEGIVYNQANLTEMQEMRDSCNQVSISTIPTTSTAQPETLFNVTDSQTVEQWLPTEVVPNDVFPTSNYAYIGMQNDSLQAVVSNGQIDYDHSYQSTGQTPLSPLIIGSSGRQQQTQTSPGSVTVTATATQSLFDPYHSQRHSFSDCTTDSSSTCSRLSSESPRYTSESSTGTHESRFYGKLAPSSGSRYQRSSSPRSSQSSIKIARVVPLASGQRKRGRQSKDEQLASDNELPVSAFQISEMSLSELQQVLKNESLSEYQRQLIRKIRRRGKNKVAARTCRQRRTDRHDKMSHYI
# [17] = system: Streptococcus sp. 'group A'; assay: Streptococcus pyogenes SK(-)GAS viability under kanamycin – luminescence, BacTiterGlo, confirmation, counter-screen for streptokinase expression inhibitor project, dose response (AID 1900); assay type: functional, organism-based
# [18] = biological target: T7, Streptokinase A (Streptococcus pyogenes serotype M1, UniProt P10520); assay: viability-normalized secreted streptokinase activity reduction – plasminogen activation absorbance, OD405, dose response (AID 1914); assay type: functional, Streptococcus pyogenes M1 GAS;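 further: secreted streptokinase activity via plasminogen activation per viability signal from cell pellet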
# T7 sequence (P10520 whole entry): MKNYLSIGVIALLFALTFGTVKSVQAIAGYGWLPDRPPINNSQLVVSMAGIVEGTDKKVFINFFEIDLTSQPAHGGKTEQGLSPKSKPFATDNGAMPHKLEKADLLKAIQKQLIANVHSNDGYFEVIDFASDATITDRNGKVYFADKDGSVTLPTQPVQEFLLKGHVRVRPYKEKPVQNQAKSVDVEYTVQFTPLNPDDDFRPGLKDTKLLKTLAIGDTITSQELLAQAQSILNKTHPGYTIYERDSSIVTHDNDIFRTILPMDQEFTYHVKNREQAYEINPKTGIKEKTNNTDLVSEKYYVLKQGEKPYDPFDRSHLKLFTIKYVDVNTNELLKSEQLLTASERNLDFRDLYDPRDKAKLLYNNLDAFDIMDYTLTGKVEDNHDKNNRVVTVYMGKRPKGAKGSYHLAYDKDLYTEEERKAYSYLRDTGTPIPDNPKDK
# [19] = system: Streptococcus; assay: GAS UMAA2166 growth inhibition – luminescence, BacTiterGlo, counter-screen for streptokinase expression inhibitor project, dose response (AID 1915); assay type: functional, organism-based;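 further: potency for reduction of bacterial viability or growth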
smiles,measurement,setting,value
Cc1nc(N)sc1C(=O)OCC(C)C,IC50,[1],> 20 µM (inactive)
COc1cccc(-c2cc(C(=O)Nc3cccc(O)c3)no2)c1,AC50,[2],42.3 µM (active)
same,AC50,[3],7.52 µM (active)
same,AC50,[4],8.73 µM (active)
same,AC50,[5],22.4 µM (inconclusive)
same,AC50,[6],inconclusive
c1ccc2c(C[C@@H]3CNCCN3CCCCC3CCCCC3)cccc2c1,IC50,[1],> 20 µM (inactive)
c1ccc(COc2ccc(OCCCN3CCCC3)cc2)cc1,AC50,[2],> 52 µM (inactive)
same,AC50,[3],0.751 µM (active)
same,AC50,[4],1.19 µM (active)
COc1ccc(-n2nc(C(=O)NCc3cc(OC)ccc3OC)c3c4ccccc4n(C)c3c2=O)cc1,IC50,[1],> 20 µM (inactive)
CC/C(C)=N/Nc1cccc([N+](=O)[O-])c1,EC50,[7],19.8 µM (active)
same,EC50,[8],> 38 µM (not active)
COC(=O)C1CCN(C(=O)CN(C)Cc2ccc(C(C)(C)C)cc2)CC1,EC50,[7],> 150 µM (inactive)
same,EC50,[8],1.43 µM (inconclusive)
same,EC50,[9],0.513 µM (active)
same,EC50,[10],> 60 µM (not active)
C=CCn1c(SCc2ccc(C(=O)Nc3ccccc3)cc2)nnc1-c1ccccc1,EC50,[7],> 160 µM (inactive)
same,EC50,[8],> 38 µM (not active)
same,AC50,[5],22.4 µM (inconclusive)
COc1ccc(C(=O)COC(=O)c2ccccc2O)c(OC)c1,IC50,[11],27.6 µM (active)
same,IC50,[12],8.26 µM (active)
same,IC50,[13],13.8 µM (active)
same,IC50,[14],53.1 µM (active)
same,IC50,[15],36.9 µM (active)
COc1cccc(NC(=O)CN(C)C(=O)c2cccnc2Nc2cccc(C(F)(F)F)c2)c1,IC50,[1],> 20 µM (inactive)
CCOC(=O)Nc1cccc2c1-c1ccc([N+](=O)[O-])cc1C2=O,IC50,[16],> 100 µM (inactive)
Cc1ccc(C(C(=O)NCC2CCCO2)N(C(=O)c2snc(C(N)=O)c2N)c2ccc(C(C)C)cc2)o1 (centres undefined),IC50,[1],> 20 µM (inactive)
Cc1nc2c(C(=O)NCCC(C)C)cnn2c(O)c1Cc1ccccc1F,EC50,[7],> 150 µM (inactive)
same,EC50,[8],4.22 µM (active)
Clc1ccccc1/C=C/c1ccnc2ccccc12,IC50,[16],67.2 µM (inactive)
O=C1/C(=C/c2cccs2)CCC/C1=C\c1cccs1,EC50,[17],> 150 µM (not active)
same,EC50,[18],68.5 µM (active)
same,EC50,[19],> 150 µM (not active)
same,IC50,[16],95.2 µM (inactive)
Cc1ccc(NC(=O)c2cc(-c3ccco3)on2)cc1C,IC50,[16],> 100 µM (inactive)
N#Cc1cnn(-c2nc(O)c3c4c(sc3n2)CCCC4)c1N,EC50,[7],16.9 µM (active)
same,EC50,[8],0.131 µM (active)
Cc1ccc(CN2CCC(n3nccc3NC(=O)c3ccccc3C)CC2)o1,IC50,[16],> 100 µM (inactive)
